Measurements published in the NIST ThermoML archive (doi:10.1021/je500065k).

Conditions: 101.33 kPa, Liquid; for electrical conductivity: the complex impedance method; for mass density: Vibrating tube method

CC[N+](C)(CC)CCOC.O=S(=O)([N-]S(=O)(=O)C(F)(F)F)C(F)(F)F
Conditions | electrical conductivity [S/m] | mass density [kg/m3] | viscosity [mPa·s]
234.15 K | 0.00083 | – | –
243.15 K | 0.0033 | – | –
253.15 K | 0.0113 | – | –
263.15 K | 0.0301 | – | –
273.15 K | 0.0662 | – | –
283.15 K | 0.127 | 1420.6 | 166
288.15 K | – | 1416.1 | 123
293.15 K | 0.216 | 1411.5 | 92.7
298.15 K | – | 1406.9 | 71.8
303.15 K | 0.336 | 1402.3 | 56.8
308.15 K | – | 1397.7 | 45.7
313.15 K | 0.488 | 1393.2 | 37.4
318.15 K | – | 1388.6 | 31
323.15 K | 0.67 | 1384 | 26.1
328.15 K | – | 1379.5 | 22.2
333.15 K | 0.869 | 1375 | 19.1
338.15 K | – | 1370.5 | 16.6
343.15 K | 1.09 | 1366.1 | 14.5
348.15 K | – | 1361.7 | 12.8
353.15 K | 1.33 | 1357.3 | 11.4

CC[N+](C)(CC)CCOC.F[B-](F)(F)F
Conditions | electrical conductivity [S/m] | mass density [kg/m3] | viscosity [mPa·s]
263.15 K | 0.0055 | – | –
273.15 K | 0.0156 | – | –
283.15 K | 0.0381 | 1188.2 | 1350
288.15 K | – | 1184.8 | 890
293.15 K | 0.0821 | 1181.3 | 604
298.15 K | – | 1177.8 | 422
303.15 K | 0.153 | 1174.4 | 303
308.15 K | – | 1171 | 222
313.15 K | 0.262 | 1167.7 | 167
318.15 K | – | 1164.4 | 128
323.15 K | 0.414 | 1161.1 | 99.7
328.15 K | – | 1157.9 | 79.1
333.15 K | 0.612 | 1154.7 | 63.7
338.15 K | – | 1151.4 | 52
343.15 K | 0.857 | 1148.2 | 43
348.15 K | – | 1145 | 36
353.15 K | 1.16 | 1141.8 | 30.5
